Test results taken from PubChem BioAssay AID2060484 (Molecular Pharmacology Branch, DTP, NCI, 2025).
pIC50: −log10 of the molar value.

Tested on: SUM149PT spheroids with HUVEC/MSC, viability
Test: Anticancer human tumor SUM149PT cell line growth inhibition [GQUAD];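 further: spheroids exposed to drugs for seven days before readout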;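 on viability, T/C: percent viability relative to DMSO vehicle control taken as 100%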
Conditions: for pIC50: curve of first compound; for viability, T/C: stronger effect = lower value
Summary of the method: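 Tumor cells were grown as complex spheroids with HUVEC endothelial cells and mesenchymal stem cells as stroma. G-quadruplex stabilizers were combined with targeted agents over half-log dilutions from near the clinical Cmax, or from 10 microM.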

[1] = second compound 0.0316 µM, first compound 0.0316 µM
[2] = second compound 0.0316 µM, first compound 0.1 µM
[3] = second compound 0.0316 µM, first compound 0.316 µM
[4] = second compound 0.0316 µM, first compound 1 µM
[5] = second compound 0.0316 µM, first compound 3.16 µM
[6] = second compound 0.0316 µM, first compound 10 µM
[7] = second compound 0.1 µM, first compound 0.0316 µM
[8] = second compound 0.1 µM, first compound 0.1 µM
[9] = second compound 0.1 µM, first compound 0.316 µM
[10] = second compound 0.1 µM, first compound 1 µM
[11] = second compound 0.1 µM, first compound 3.16 µM
[12] = second compound 0.1 µM, first compound 10 µM
[13] = second compound 0.316 µM, first compound 0.0316 µM
[14] = second compound 0.316 µM, first compound 0.1 µM
[15] = second compound 0.316 µM, first compound 0.316 µM
[16] = second compound 0.316 µM, first compound 1 µM
[17] = second compound 0.316 µM, first compound 3.16 µM
[18] = second compound 0.316 µM, first compound 10 µM
[19] = second compound 1 µM, first compound 0.0316 µM
[20] = second compound 1 µM, first compound 0.1 µM
[21] = second compound 1 µM, first compound 0.316 µM
[22] = second compound 1 µM, first compound 1 µM
[23] = second compound 1 µM, first compound 3.16 µM
[24] = second compound 1 µM, first compound 10 µM
[25] = second compound 3.16 µM, first compound 0.0316 µM
[26] = second compound 3.16 µM, first compound 0.1 µM
[27] = second compound 3.16 µM, first compound 0.316 µM
[28] = second compound 3.16 µM, first compound 1 µM
[29] = second compound 3.16 µM, first compound 3.16 µM
[30] = second compound 3.16 µM, first compound 10 µM
[31] = second compound 10 µM, first compound 0.0316 µM
[32] = second compound 10 µM, first compound 0.1 µM
[33] = second compound 10 µM, first compound 0.316 µM
[34] = second compound 10 µM, first compound 1 µM
[35] = second compound 10 µM, first compound 3.16 µM
[36] = second compound 10 µM, first compound 10 µM

With `C=CCn1c(=O)c2cnc(Nc3ccc(N4CCN(C)CC4)cc3)nc2n1-c1cccc(C(C)(C)O)n1` + Cc1[nH]c2ccc(F)cc2c1-c1nc2c3cccnc3c3ncccc3c2[nH]1 the pIC50 (second compound 0.0316 µM) was 6.73, the pIC50 (second compound 0.1 µM) was 6.72 and the pIC50 (second compound 0.316 µM) was 6.72. For the same compound, the pIC50 (second compound 1 µM) was 6.74, the pIC50 (second compound 3.16 µM) was 6.76 and the pIC50 (second compound 10 µM) was 6.72. The viability, T/C [1] was 98.9%, the viability, T/C [2] was 67% and the viability, T/C [3] was 34.8%. The viability, T/C [4] was 21%, the viability, T/C [5] was 10.4% and the viability, T/C [6] was 7.37%. The viability, T/C [7] was 91.1%, the viability, T/C [8] was 73.5% and the viability, T/C [9] was 30.3%. The viability, T/C [10] was 21.4%, the viability, T/C [11] was 11.7% and the viability, T/C [12] was 7.7%. The viability, T/C [13] was 94.7%, the viability, T/C [14] was 72.5% and the viability, T/C [15] was 31.1%. For the same compound, the viability, T/C [16] was 21.9%, the viability, T/C [17] was 10.5% and the viability, T/C [18] was 11.6%. It also gave a viability, T/C [19] of 85.8%, a viability, T/C [20] of 66.1% and a viability, T/C [21] of 33.2%. It also gave a viability, T/C [22] of 22.6%, a viability, T/C [23] of 9.91% and a viability, T/C [24] of 9.92%. The viability, T/C [25] was 84.2%, the viability, T/C [26] was 66.6% and the viability, T/C [27] was 31%. For the same compound, the viability, T/C [28] was 20.3%, the viability, T/C [29] was 9.05% and the viability, T/C [30] was 8.88%. For the same compound, the viability, T/C [31] was 88.7%, the viability, T/C [32] was 66.6% and the viability, T/C [33] was 35.9%. It also gave a viability, T/C [34] of 20.1%, a viability, T/C [35] of 10.6% and a viability, T/C [36] of 9.87%.
Work on `COc1ncnc(C2CC2)c1-c1ncc2cnn(Cc3ccc(-c4nc(C(F)(F)F)cn4C(C)C)cc3)c2n1` + Cc1[nH]c2ccc(F)cc2c1-c1nc2c3cccnc3c3ncccc3c2[nH]1 yielded a pIC50 (second compound 0.0316 µM) of less than 5.00, a pIC50 (second compound 0.1 µM) of less than 5.00 and a pIC50 (second compound 0.316 µM) of less than 5.00. It also gave a pIC50 (second compound 1 µM) of less than 5.00, a pIC50 (second compound 3.16 µM) of less than 5.00 and a pIC50 (second compound 10 µM) of less than 5.00. It also gave a viability, T/C [1] of 106%, a viability, T/C [2] of 87.2% and a viability, T/C [3] of 92.7%. It also gave a viability, T/C [4] of 92.4%, a viability, T/C [5] of 91.6% and a viability, T/C [6] of 95.4%. It also gave a viability, T/C [7] of 103%, a viability, T/C [8] of 104% and a viability, T/C [9] of 87.2%. It also gave a viability, T/C [10] of 90.1%, a viability, T/C [11] of 91.2% and a viability, T/C [12] of 94.3%. The viability, T/C [13] was 97.4%, the viability, T/C [14] was 97.6% and the viability, T/C [15] was 68.9%. For the same compound, the viability, T/C [16] was 93%, the viability, T/C [17] was 97.8% and the viability, T/C [18] was 94.6%. For the same compound, the viability, T/C [19] was 98.1%, the viability, T/C [20] was 98.1% and the viability, T/C [21] was 92.3%. For the same compound, the viability, T/C [22] was 92.2%, the viability, T/C [23] was 90.1% and the viability, T/C [24] was 95.3%. The viability, T/C [25] was 97.4%, the viability, T/C [26] was 89.6% and the viability, T/C [27] was 86.1%. It also gave a viability, T/C [28] of 82.3%, a viability, T/C [29] of 89.4% and a viability, T/C [30] of 89.2%. The viability, T/C [31] was 91.8%, the viability, T/C [32] was 91.4% and the viability, T/C [33] was 85.4%. It also gave a viability, T/C [34] of 83.7%, a viability, T/C [35] of 90.8% and a viability, T/C [36] of 92.5%.
